Tests used:
Assay in all cases: Serine Protease Inhibition Assay
[1] = target: T1, Serine protease 1 (Bos taurus, UniProt P00760)
T1 sequence (P00760 whole entry): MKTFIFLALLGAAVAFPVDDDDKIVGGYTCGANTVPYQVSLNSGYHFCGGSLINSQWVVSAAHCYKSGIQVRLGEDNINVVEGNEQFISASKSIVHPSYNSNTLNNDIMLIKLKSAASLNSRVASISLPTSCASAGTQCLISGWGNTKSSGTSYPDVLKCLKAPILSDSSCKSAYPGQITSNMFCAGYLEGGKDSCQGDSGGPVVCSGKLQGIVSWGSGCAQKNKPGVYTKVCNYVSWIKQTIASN
Experimental: (§1) The enzyme reactions were initiated by the addition of substrate, and the color developed from the release of p-nitroanilide from each chromogenic substrate was monitored continuously for 5 min at 405 nm on a microtiter plate reader. […] The apparent Ki values were then calculated according to the Cheng-Prusoff equation: Ki = IC50/1 + [S]/Km.

[2] = target: T2, Coagulation factor VII (Homo sapiens, UniProt P08709); conditions: pH 7.8; 22 °C
T2 sequence (P08709 whole entry): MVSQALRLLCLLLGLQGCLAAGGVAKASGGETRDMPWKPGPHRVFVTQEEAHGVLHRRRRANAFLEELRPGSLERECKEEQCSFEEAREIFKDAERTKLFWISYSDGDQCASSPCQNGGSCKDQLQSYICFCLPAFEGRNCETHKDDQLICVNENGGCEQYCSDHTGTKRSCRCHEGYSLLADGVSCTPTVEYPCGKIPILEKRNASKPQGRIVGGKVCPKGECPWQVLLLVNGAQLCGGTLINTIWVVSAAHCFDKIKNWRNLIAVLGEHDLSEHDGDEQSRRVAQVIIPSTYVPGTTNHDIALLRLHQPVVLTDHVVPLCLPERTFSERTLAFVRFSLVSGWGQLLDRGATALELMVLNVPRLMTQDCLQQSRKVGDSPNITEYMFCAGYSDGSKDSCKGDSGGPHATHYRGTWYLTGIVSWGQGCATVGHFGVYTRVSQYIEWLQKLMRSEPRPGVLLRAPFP
Experimental: as §1

[3] = target: Prothrombin (Homo sapiens, UniProt P00734); conditions: pH 7.8; 22 °C
Experimental: as §1

[4] = target: Coagulation factor X (Homo sapiens, UniProt P00742)
Experimental: as §1

Sequence of Coagulation factor X (P00742 41-179 limits assumed): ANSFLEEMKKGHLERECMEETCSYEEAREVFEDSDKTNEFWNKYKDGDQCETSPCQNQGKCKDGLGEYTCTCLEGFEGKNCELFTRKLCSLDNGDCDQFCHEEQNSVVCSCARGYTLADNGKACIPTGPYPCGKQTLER
Sequence of Coagulation factor X (P00742 235-488 limits assumed): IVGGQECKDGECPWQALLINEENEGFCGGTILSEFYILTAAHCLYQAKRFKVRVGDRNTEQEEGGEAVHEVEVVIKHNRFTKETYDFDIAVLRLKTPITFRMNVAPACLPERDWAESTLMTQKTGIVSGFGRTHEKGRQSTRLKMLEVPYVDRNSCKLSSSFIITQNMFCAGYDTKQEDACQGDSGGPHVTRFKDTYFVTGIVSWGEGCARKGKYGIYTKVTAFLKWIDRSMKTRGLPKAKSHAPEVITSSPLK

`CCOc1cc(O[C@@H]2CCOC2)c(F)c([C@@H](Nc2ccc(C(=N)N)cc2)C(=O)O)c1` [(2R)-2-[(4-carbamimidoylphenyl)amino]-2-{5-ethoxy-2-fluoro-3-[(3R)-oxolan-3-yloxy]phenyl}acetic acid] gave a Ki [1] of 3.2 µM, a Ki [2] of 0.081 µM and a Ki [3] of 4.5 µM. The Ki [4] was 1.9 µM.

With `CCOc1cc(OC2CCOC2)cc(C(Nc2ccc(C(=N)N)cc2)C(=O)O)c1` (stereo not given) [(4-Carbamimidoyl-phenylamino)-[3-ethoxy-5-(tetra-hydrofuran-3-yloxy)-phenyl]-acetic acid] the Ki [1] was > 6.8 µM, the Ki [3] was 10.7 µM and the Ki [4] was 2.9 µM.

`CCOc1cc(OCC)c(F)c(C(Nc2ccc(C(=N)N)cc2)C(=O)O)c1` (racemic) [2-[(4-carbamimidoylphenyl)amino]-2-(3,5-diethoxy-2-fluorophenyl)acetic acid] was tested, and the Ki [1] was 6.8 µM, the Ki [2] was 0.2 µM and the Ki [3] was 8.8 µM. The Ki [4] was 3 µM.

In the case of `COc1ccc(-c2ccc(C(=O)N[C@H](CO)C(C)(C)C)cc2C(=O)O)c(C(=O)Nc2ccc(C(=N)N)cc2)n1` [2-{2-[(4-carbamimidoylphenyl)carbamoyl]-6-methoxypyridin-3-yl}-5-{[(2S)-1-hydroxy-3,3-dimethylbutan-2-yl]carbamoyl}benzoic acid], the Ki [1] is reported as 0.24 µM, the Ki [2] is reported as 0.01 µM and the Ki [3] is reported as 4.3 µM. It also gave a Ki [4] of 0.15 µM.

In the case of `CCOc1cc(O[C@@H]2CCOC2)c(F)c([C@@H](Nc2ccc(C(=N)N)cc2)C(=O)O)c1` [2-[(4-carbamimidoylphenyl)amino]-2-[5-ethoxy-2-fluoro-3-(oxolan-3-yloxy)phenyl]acetic acid], the Ki [1] is reported as 3.1 µM, the Ki [2] is reported as 0.088 µM and the Ki [3] is reported as 7.1 µM. It also gave a Ki [4] of 1.2 µM.

`CCOc1cc(OCC)cc(C(Nc2ccc(C(=N)N)cc2)C(=O)O)c1` (stereo not given) [2-[(4-carbamimidoylphenyl)amino]-2-(3,5-diethoxyphenyl)acetic acid] was tested, and the Ki [3] was > 35 µM.

— BindingDB's records for doi:10.1016/j.bmc.2006.03.042 (F. Hoffmann-La Roche, 2006)
